Like-named read-outs stand apart in the source and are kept apart here.
Assays:
[1] = target: CT-L activity of purified 20S proteasome (Oryctolagus cuniculus, UniProt G1SU71+G1T4Q9); assay: Proteolytic activity of purified 20S proteasome, CT-L; type: biochemical, rabbit; settings: CT-L, Bortezomib vs PI-083
T80-Hras ovarian cells = assay: MTT cell viability assay; type: cell-based, human; settings: Homo sapiens, read-out: IC50 cell viability (MTT)
[2] = tested on: primary multiple myeloma cells from patients' bone marrow; assay: Proliferation of primary MM cells; type: cell-based, human; settings: read-out: IC50 Proliferation
[3] = tested on: primary multiple myeloma cells from patients' bone marrow; assay: Cell death of primary MM cells; type: cell-based, human; settings: read-out: IC50 Cell Death
[4] = tested on: MCF-7 human breast tumors; assay: MCF-7 xenograft in nude mice; type: in vivo; settings: MCF-7 s.c. xenograft, 1 mpk i.p. 2x weekly
A549 human lung tumors = assay: A549 xenograft in nude mice; type: in vivo; settings: A549 s.c. xenograft, 1 mpk i.p. 2x weekly, start ~200 mm^3, 16 days
[5] = target: tumor CT-L activity of the proteasome (Homo sapiens, UniProt P20618+P28074); assay: Proteasome activity in A549 tumor lysates after in vivo treatment, CT-L; parameters: species or system nude mice; settings: A549 tumors, 1 mpk i.p., 2 h after last injection
[6] = target: tumor T-L activity of the proteasome (Homo sapiens, UniProt Q99436); assay: Proteasome activity in A549 tumor lysates after in vivo treatment, T-L; parameters: species or system nude mice; settings: A549 tumors, 1 mpk i.p., 2 h after last injection
[7] = target: tumor PGPH activity of the proteasome (Homo sapiens, UniProt P28072); assay: Proteasome activity in A549 tumor lysates after in vivo treatment, PGPH; parameters: species or system nude mice; settings: A549 tumors, 1 mpk i.p., 2 h after last injection
[8] = tested on: p27^Kip1 levels in A549 lung cancer cells; assay: Western blot of p27Kip1 in cultured A549 cells; type: cell-based, human; settings: 48 h
[9] = tested on: MCF-7/MCF-10A, T80-Hras/T80, C7-Kras/C7 cells; assay: TUNEL apoptosis assay in 3 pairs of cell lines; type: cell-based, human; settings: 24 h, any of the 6 cell lines
[10] = tested on: all cancer and non-transformed cell lines except RPMI-8226; assay: MTT cell viability assay, panel of cancer and non-transformed cell lines; type: cell-based; settings: Homo sapiens, RPMI-8226, 24 h, read-out: IC50 cell viability (MTT)
[11] = Homo sapiens, Multiple myeloma cell, 24 h

CT-L activity of purified 20S proteasome, sequence (G1T4Q9 60-263): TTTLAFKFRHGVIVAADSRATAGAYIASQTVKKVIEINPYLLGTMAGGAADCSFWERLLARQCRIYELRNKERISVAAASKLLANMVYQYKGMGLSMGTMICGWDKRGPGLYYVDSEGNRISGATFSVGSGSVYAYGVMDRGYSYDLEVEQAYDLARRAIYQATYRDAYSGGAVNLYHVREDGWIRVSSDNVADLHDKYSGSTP
CT-L activity of purified 20S proteasome, sequence (G1SU71 29-241): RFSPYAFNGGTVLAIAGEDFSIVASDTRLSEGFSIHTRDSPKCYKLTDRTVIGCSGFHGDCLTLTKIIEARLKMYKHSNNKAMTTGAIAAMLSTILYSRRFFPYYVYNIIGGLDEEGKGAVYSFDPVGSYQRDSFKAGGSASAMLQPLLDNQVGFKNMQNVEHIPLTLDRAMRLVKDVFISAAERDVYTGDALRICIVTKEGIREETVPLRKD

**Q.** With `CC(C)C[C@H](NC(=O)[C@H](Cc1ccccc1)NC(=O)c1cnccn1)B(O)O` [Bortezomib] as the compound, how does the “difference in potency between Bortezomib and PI-083” value [1] read?
**A.** 100 fold

**Q.** What about the IC50 (T80-Hras ovarian cells; 24 h) of the same compound?
**A.** > 30 µM

**Q.** What about the IC50 (T80-Hras ovarian cells; 72 h) of the same compound?
**A.** 0.024 ± 0.01 µM

**Q.** What about the IC50 [2, 11] of the same compound?
**A.** > 10 µM

**Q.** What about the IC50 ([2]; patient 1, 24 h) of the same compound?
**A.** > 10 µM

**Q.** And the IC50 ([2]; patient 2, 24 h)?
**A.** > 10 µM

**Q.** What about the IC50 ([2]; patient 3, 24 h) of the same compound?
**A.** > 10 µM

**Q.** What about the IC50 ([2]; patient 5, 24 h) of the same compound?
**A.** > 10 µM

**Q.** And the IC50 ([2]; patient 6, 24 h)?
**A.** > 10 µM

**Q.** What about the IC50 ([2]; patient 7, 24 h) of the same compound?
**A.** > 10 µM

**Q.** And the IC50 ([2]; patient 8, 24 h)?
**A.** > 10 µM

**Q.** And the IC50 ([2]; patient 9, 24 h)?
**A.** > 10 µM

**Q.** What about the IC50 ([2]; patient 10, 24 h) of the same compound?
**A.** > 10 µM

**Q.** What about the IC50 [3, 11] of the same compound?
**A.** > 10 µM

**Q.** And the IC50 ([3]; patient 1, 24 h)?
**A.** > 10 µM

**Q.** What about the IC50 ([3]; patient 2, 24 h) of the same compound?
**A.** > 10 µM

**Q.** What about the IC50 ([3]; patient 3, 24 h) of the same compound?
**A.** > 10 µM

**Q.** What about the IC50 ([3]; patient 5, 24 h) of the same compound?
**A.** > 10 µM

**Q.** What about the IC50 ([3]; patient 6, 24 h) of the same compound?
**A.** > 10 µM

**Q.** What about the IC50 ([3]; patient 7, 24 h) of the same compound?
**A.** > 10 µM

**Q.** What about the IC50 ([3]; patient 8, 24 h) of the same compound?
**A.** > 10 µM

**Q.** And the IC50 ([3]; patient 9, 24 h)?
**A.** > 10 µM

**Q.** And the IC50 ([3]; patient 10, 24 h)?
**A.** > 10 µM

**Q.** What about the “antitumor effect (in words)” value [4] of the same compound?
**A.** ineffective

**Q.** What about the average tumor size ([4]; start ~200 mm^3, 16 days) of the same compound?
**A.** 1,448 ± 145 mm^3

**Q.** What about the average tumor size (A549 human lung tumors) of the same compound?
**A.** 864 ± 207 mm^3

**Q.** What about the “inhibition of tumor CT-L activity vs vehicle-treated controls” value [5] of the same compound?
**A.** 70%

**Q.** What about the “inhibition of tumor T-L activity vs vehicle-treated controls” value [6] of the same compound?
**A.** 0%

**Q.** What about the “inhibition of tumor PGPH activity vs vehicle-treated controls” value [7] of the same compound?
**A.** 68%

**Q.** And the “p27^Kip1 levels” value [8]?
**A.** marked increase

**Q.** And the “apoptosis (TUNEL)” value [9]?
**A.** induced little apoptosis

**Q.** And the IC50 [10]?
**A.** > 30 µM
